# Legend:
# [1] = Excretion of SRA737 in mice; format: in vivo, mouse; conditions: 24-hour collection
# Procedure: The excretion of SRA737 has been studied in mice and rats administered SRA737 at either 5 mg/kg IV or 10 mg/kg orally. Urine and feces were collected for a 24-hour period after dosing. In mice, renal excretion of intact SRA737 was consistently low (less than 10% of dose) after both oral and IV administration. Following IV administration of SRA737, less than 8% of the dose was recovered as intact drug in the feces while after oral administration this figure was less than 3%. Excretion of intact SRA737 was lower in the rat than in the mouse with <1% of dose excreted renally over 24 hours and less than 1.5% of dose excreted into the feces over 24 hours.
# EMT6/P = test: Micronuclei assay, EMT6/P; format: cell-based; conditions: 1 μM, 24 hours or 48 hours
# Procedure: H69 cells were cultured as discussed earlier and treated with or without SRA737 (1 μM). Cytochalasin B was added at 20th hour to each culture to give a final concentration of 3 μg/ml and the culture was incubated at 37° C. for up to 24 hrs. After 24 hrs incubation, the cells were centrifuged at 1000 rpm for 5 min. The supernatant was removed and the pellet was treated with weak hypotonic solution (0.075 M KCl/0.9% Saline, 1:9) and incubated at 37° C. for 5 min. After this, the cells were centrifuged and the pellets were fixed in fresh fixative (methanol:acetic acid, 3:1). Cells were dropped onto glass slides were prepared and stained with ProLong® Gold Antifade Mountant with DAPI. In the case of EMT-6 cells, micronuclei formation assays were performed at Phenovista Biosciences, San Diego. The cells were treated with either 1 μM or 5 μM SRA737 for 24h followed by mixing with 4% PFA for 20 minutes at RT directly in the culture wells, washing with PBS and staining with Hoechst (1:1000). The plates were imaged at 40× using the Thermo Fisher Scientific CellInsight CX7 imaging system and the micronuclei algorithm was adjusted to score all nuclei that are <55% of the size of the main nucleus. A total of 25 fields per well were imaged and the data was averaged across 8 replicates.
# SRA737 was also evaluated for induced cytogenetic stress using a micronuclei (MN) assay.
# human hepatocytes = test: Stability and metabolites in cryopreserved hepatocytes, human; format: in vitro ADME; conditions: 10 μM, up to 4 hours
# Procedure: The formation of SRA737-related metabolites was determined in cryopreserved hepatocytes from human, mouse, rat, dog, minipig and monkey samples after incubation with SRA737 at a nominal concentration of 10 μM for up to 4 hours. […] In the human hepatocyte preparation, approximately 67% of the parent remained after 4 hours of incubation compared to 75% and 7% in the rat and minipig preparations, respectively. Eight human SRA737 metabolites were observed. All SRA737 metabolites formed by human hepatocytes were also formed by monkey hepatocytes. Six metabolites were present at equal or greater abundance in the monkey.
# IFNβ, CXCL10 and CCL5 = test: qPCR of IFNβ, CXCL10 and CCL5 mRNA in SCLC cell lines; format: cell-based; conditions: 24 and 72 hours
# Procedure: “Con” indicates control. Data presented as mean±SD and p values by t-test ***p<0.001.
# Real-time PCR was done using SYBR Select Master Mix (Life Technologies, cat #4472908) according to the manufacturer's protocol. Primers were purchased from Sigma Aldrich, Inc. Triplicate PCR reactions were run on ABI (7500 Fast Real Time PCR System). The comparative Ct method using the average 2ΔΔCT value for each set of triplicates was used, and the average of the biological replicates was calculated. Negative controls were included for every primer set, and GAPDH was used as the […].
# MBT-2 = MBT-2 bladder flank tumor growth in immunocompetent mice; format: in vivo, mouse; conditions: SRA737 100 mg/kg 5-days-on/2-days-off p.o., anti-PD1 BIW 10 mg/kg i.p.
# Procedure: Tumors were evaluated twice weekly for the duration of the study. Tumor volumes were measured on all mice three times per week and calculated (width^2×length×0.4) using manual calipers. Once the average tumor size was in the range of 120-150 mm^3, mice were randomized into dosing groups using stratified sampling by assigning three animals per group for short-term reverse-phase protein array analysis and long-term treatment. Dosing schedules and duration varied depending on the study. Mice were weighed three times per week for the duration of the study, and a decrease in body weight >15% was considered indicative of a toxic dose. The Student t-test was used to determine statistical significance between compound- and vehicle-treated groups.
# Tumors cells were implanted into the flank of immunocompetent mice. Once the volumes of the tumor reached 150-200 mm^3, the mice were randomized and treated with either monotherapy of SRA737 at 100 mg/kg for 5-days-on/2-days-off p.o., anti-PD1 BIW at 10 mg/kg i.p. or the combination thereof.
# [2] = Phase 1 clinical study, SRA737 monotherapy dose escalation; conditions: human, in vivo
# Procedure: A Phase 1 clinical trial was conducted in ‘all comers,’ i.e. no genetic selection was performed, to establish safety, tolerability and pharmacokinetics (“Dose Escalation Phase”). Cohorts consisting initially of a single subject received escalating doses of SRA737, starting in Cohort 1 with 20 mg/day administered orally on a continuous daily dosing schedule in 28 day cycles. the dose was escalated until the maximum tolerated dose (MTD) was identified.
# In the Dose Escalation Phase, 18 subjects received SRA737 in 9 dose level cohorts, from 20 to 1300 mg QD; median treatment duration 62.5 days (range 1 to 226). […] Two of 3 subjects experienced DLTs at the 1300 mg once daily dose, each being an inability to receive 75% of the planned SRA737 dose due to GI intolerability, with the individual GI effects being low grade. […] A cohort receiving 500 mg twice daily was added to determine if a twice daily dosing schedule can improve GI tolerability, given the half-life of SRA737 is approximately 10 hours. One of 6 subjects experienced DLTs in the 500 mg twice daily cohort; this was an inability to receive 75% of the planned SRA737 dose due to grade 4 thrombocytopenia with grade 3 neutropenia and anemia.
# STING pathway = test: Western blot of STING pathway markers in SCLC cell lines; format: cell-based; conditions: H1694 and H847 cell lines; 1 μM; 24 and 72 hours
# Procedure: Western blot analysis was performed using SDS-PAGE followed by transfer to nitrocellulose membrane using the BioRad Gel system. Membranes were incubated in the following primary antibodies (1:1000) overnight: PD-L1 (CST), total and phospho- (S366) STING (CST), total and phospho- (S396) IRF3 (CST), phospho-YH2AX (CST) and Actin (Sigma). Secondary anti-rabbit, HRP-linked antibodies were purchased from Cell Signaling Biosciences and detected using the Chemidoc imaging system mage-captured with Image Studio Version 3.1 software.
# [3] = tested on: NSCLC cancer lines (A549, Calu1, Calu6, H1299, H1573, H1944, H1993); test: Cell viability, NSCLC cancer lines; format: cell-based; conditions: read-out: IC50 range
smiles,measurement,setting,value
"N#Cc1cnc(Nc2cc(NCC3CNCCO3)c(C(F)(F)F)cn2)cn1 (stereo not shown) [SRA737, 5-[[4-[[morpholin-2-yl]methylamino]-5-(trifluoromethyl)-2-pyridyl]amino]pyrazine-2-carbonitrile]",dose recovered as intact drug in the feces,[1]; IV administration,less than 8 % of dose
same,dose recovered as intact drug in the feces,[1]; oral administration,less than 3 % of dose
same,micronuclei formation,EMT6/P,led to micronuclei formation
same,human SRA737 metabolites observed,human hepatocytes,Eight
same,"IFNβ, CXCL10 and CCL5 (targets of IRF3)","IFNβ, CXCL10 and CCL5",activated
same,TGI,MBT-2,53%
same,doses that exceeded the level effective in preclinical models,[2],≥ 300 mg
same,T1/2,[2]; 800 mg,10.3 h
same,"STING pathway (pSTING_S366, STING, pIRF3_S396 and IRF3)",STING pathway,Activation of the STING pathway
same,IC50,[3],≥ 800 nM

# Source: patent US20220184091A1, “Methods of Treating Cancer with Chk1 Inhibitors” (Sierra Oncology, Inc., priority 2019, published 2022)
